Assays:
MAO-A = target: T1, MAO-A (Homo sapiens, UniProt P21397); assay: Inhibition of MAO-A (kynuramine, continuous absorbance assay); conditions: for remaining activity at 10 µM: read-out: Residual Activity at 10 µM (%) MAO-A
T1 sequence (P21397 1-527): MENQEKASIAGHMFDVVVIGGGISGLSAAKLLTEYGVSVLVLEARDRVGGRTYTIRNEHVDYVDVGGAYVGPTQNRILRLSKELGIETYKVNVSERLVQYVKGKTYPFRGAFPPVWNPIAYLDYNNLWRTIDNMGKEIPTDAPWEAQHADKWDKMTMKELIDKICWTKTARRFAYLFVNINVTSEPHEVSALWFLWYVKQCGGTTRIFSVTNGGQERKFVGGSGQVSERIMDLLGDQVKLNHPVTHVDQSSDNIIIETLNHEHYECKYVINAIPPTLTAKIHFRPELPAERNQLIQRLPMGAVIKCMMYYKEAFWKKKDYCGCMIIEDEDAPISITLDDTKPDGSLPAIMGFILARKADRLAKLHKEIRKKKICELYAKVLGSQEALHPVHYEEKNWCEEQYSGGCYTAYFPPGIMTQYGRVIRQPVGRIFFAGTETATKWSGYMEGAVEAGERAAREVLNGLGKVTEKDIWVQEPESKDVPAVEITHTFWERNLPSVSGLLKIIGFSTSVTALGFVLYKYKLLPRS

MAO-B [1] = target: T2, MAO-B (Homo sapiens, UniProt P27338); assay: biochemical; conditions: 0.3 mM benzylamine; for IC50: IC50 (µM) MAO-B, limit 40 µM; for remaining activity at 10 µM: read-out: Residual Activity at 10 µM (%) MAO-B, 10 µM compound
T2 sequence (P27338 1-520): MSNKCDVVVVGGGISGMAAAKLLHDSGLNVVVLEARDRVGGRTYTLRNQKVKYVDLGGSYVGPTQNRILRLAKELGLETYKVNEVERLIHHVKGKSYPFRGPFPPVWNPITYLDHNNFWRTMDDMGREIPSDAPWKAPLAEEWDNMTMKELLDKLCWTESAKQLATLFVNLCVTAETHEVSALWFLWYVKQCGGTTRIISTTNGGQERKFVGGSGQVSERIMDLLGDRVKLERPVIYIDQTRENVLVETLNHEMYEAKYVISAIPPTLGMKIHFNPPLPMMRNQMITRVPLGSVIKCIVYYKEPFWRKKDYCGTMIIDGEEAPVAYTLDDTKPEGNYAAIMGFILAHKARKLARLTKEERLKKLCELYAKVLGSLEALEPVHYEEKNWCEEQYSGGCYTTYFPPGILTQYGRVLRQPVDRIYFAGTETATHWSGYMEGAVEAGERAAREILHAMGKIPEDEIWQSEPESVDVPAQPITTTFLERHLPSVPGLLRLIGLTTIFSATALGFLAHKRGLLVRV

MAO-B [2] = target: T2, MAO-B; conditions: for SI (selectivity index): IC50 for MAO-A/IC50 for MAO-B
MAO-B [3] = target: T2, MAO-B; assay: MAO-B enzyme kinetics (Lineweaver-Burk and secondary plot); assay type: biochemical
MAO-B [4] = target: T2, MAO-B; assay: Reversibility of MAO-B inhibition by dialysis; assay type: biochemical; conditions: for Residual activity, dialyzed (AD): dialyzed 6 h, two buffer changes
SH-SY5Y cells = assay: Neuroprotection on rotenone-induced SH-SY5Y cells by MTT assay; assay type: cell-based
MAO-B [5] = conditions: cited from earlier work
MAO = system: MAO; design: method as in PMID 27374845; conditions: cited from earlier work
[6] = ~2.0 times IC50, preincubation 30 min

| SMILES | IC50 (MAO-A) | remaining activity at 10 µM (MAO-A) | IC50 (MAO-B [1]) | remaining activity at 10 µM (MAO-B [1]) | other results |
| --- | --- | --- | --- | --- | --- |
| COc1ccc(C=CC=NN=C2C(=O)Nc3ccc(OC)cc32)cc1 [IHMC5] | > 40 µM | 84.48 ± 0.73% | > 40 µM | 85.6 ± 4.27% |  |
| O=C1Nc2ccc(Cl)cc2C1=NN=CC=Cc1ccccc1 [IHC4] | > 40 µM | 86.7 ± 1.78% | 27.5 ± 1.15 µM | 73.9 ± 8.87% | SI (selectivity index) (MAO-B [2]): >1.46 |
| O=C1Nc2ccc(F)cc2/C1=N/N=CC=Cc1ccccc1 [IHC3] | > 40 µM | 76.9 ± 1.55% | 1.67 µM |  | Type of MAO-B inhibition (MAO-B [3]; Lineweaver-Burk plot): competitive MAO-B inhibitor; Ki (MAO-B [3]; secondary plot, benzylamine substrate): 0.51 ± 0.15 µM; SI (selectivity index) (MAO-B [2]): >23.92; Times higher MAO-B inhibition than IHMC2 (MAO-B [2]; ratio of IC50 values): 15.07 times; Times higher MAO-B inhibition than IHNC2 (MAO-B [2]; ratio of IC50 values): 13.15 times; Reversibility of MAO-B inhibition (MAO-B [4]; dialysis): reversible MAO-B inhibitor; Residual activity, dialyzed (AD) (MAO-B [4]; [6]): 72.05%; Residual activity, undialyzed (AU) (MAO-B [4]; ~2.0 times IC50, preincubation 30 min, undialyzed): 32.87%; Cell viability trend (SH-SY5Y cells; 25 µg/mL IHC3, rotenone-induced cells, MTT): viability decreased; viability at 12.5 µg/mL (SH-SY5Y cells; Homo sapiens, SH-SY5Y, 12.5 µg/mL IHC3, rotenone-induced cells, MTT, 24 h, read-out: Cell viability (maximum)): 89.7%; Cell death caused by rotenone (SH-SY5Y cells; SH-SY5Y neuroblastoma cells): greatly decreased the cell death |
| O=C1Nc2ccccc2C1=NN=CC=Cc1ccc([N+](=O)[O-])cc1 [IHNC1] | > 40 µM | 88.7 ± 2.4% | > 40 µM | 96.9 ± 3.36% |  |
| O=C1Nc2ccccc2C1=NN=CC=Cc1ccccc1 [IHC1] | > 40 µM | 94.5 ± 2.1% | > 40 µM | 89.3 ± 3% |  |
| O=C1Nc2ccc(Br)cc2C1=NN=CC=Cc1ccc([N+](=O)[O-])cc1 [IHNC2] | > 40 µM | 88.5 ± 0.71% | 22 ± 0.354 µM | 71.2 ± 1.99% | SI (selectivity index) (MAO-B [2]): >1.82 |
| COc1ccc(C=CC=NN=C2C(=O)Nc3ccc(Br)cc32)cc1 [IHMC2] | > 40 µM | 86.63 ± 0.52% | 25.19 ± 0.147 µM | 78.1 ± 1.12% | SI (selectivity index) (MAO-B [2]): >1.59 |
| COc1ccc(C=CC=NN=C2C(=O)Nc3ccc(Cl)cc32)cc1 [IHMC4] | > 40 µM | 81.46 ± 0.77% | > 40 µM | 76.5 ± 3.27% |  |
| Cc1ccc2c(c1)C(=NN=CC=Cc1ccc([N+](=O)[O-])cc1)C(=O)N2 [IHNC6] | > 40 µM | 87.2 ± 1.13% | > 40 µM | 81.1 ± 6.4% |  |
| COc1ccc2c(c1)C(=NN=CC=Cc1ccccc1)C(=O)N2 [IHC5] | > 40 µM | 82.3 ± 1.8% | > 40 µM | 75.8 ± 6.17% |  |
| O=C1Nc2ccc(Br)cc2C1=NN=CC=Cc1ccccc1 [IHC2] | > 40 µM | 92.37 ± 0.52% | 16.9 ± 0.397 µM | 61.4 ± 3.42% | SI (selectivity index) (MAO-B [2]): >2.36 |
| Cc1ccc2c(c1)C(=NN=CC=Cc1ccccc1)C(=O)N2 [IHC6] | > 40 µM | 98.1 ± 1.55% | > 40 µM | 79.4 ± 3.25% |  |
| O=C1Nc2ccc(F)cc2C1=NN=CC=Cc1ccc([N+](=O)[O-])cc1 [IHNC3] | > 40 µM | 80.4 ± 0.57% | > 40 µM | 78.9 ± 3.35% |  |
| O=C1Nc2ccc(Br)cc2C1=O [Compound 1f] |  |  |  |  | IC50 (MAO-B [5]): 0.125 µM |
| O=C1Nc2ccc(Cl)cc2C1=NN=CC=Cc1ccc([N+](=O)[O-])cc1 [IHNC4] | > 40 µM | 82.3 ± 0.99% | 26.5 ± 0.6 µM | 74.5 ± 4.63% | SI (selectivity index) (MAO-B [2]): >1.51 |
| COc1ccc(C=CC=NN=C2C(=O)Nc3ccc(C)cc32)cc1 [IHMC6] | > 40 µM | 89.8 ± 2.55% | > 40 µM | 91.8 ± 3.48% |  |
| O=C(CN1CCc2cc(OCc3ccccc3)ccc21)N1CCN(CCO)CC1 [Compound 14] |  |  |  |  | IC50 (MAO-B [5]): 8.65 µM |
| C[C@H](NCc1ccc(OCc2cccc(F)c2)cc1)C(N)=O [Safinamide, reference compound] |  |  |  |  | Residual activity, dialyzed (AD) (MAO-B [4]; [6]): 85.86% |
| COc1ccc(C=CC=NN=C2C(=O)Nc3ccccc32)cc1 [IHMC1] | > 40 µM | 89.9 ± 1.3% | > 40 µM | 96.89 ± 0.95% |  |
| O=C1Nc2ccccc2C1=O [isatin, 1H-indole-2,3-dione] |  |  |  |  | IC50 (MAO): ~3 µM |
| O=C1Nc2ccc(OCc3ccc(Cl)c(Cl)c3)cc2C1=O [A3] |  |  |  |  | IC50 (MAO-B [5]): 0.003 µM |
| COc1ccc2c(c1)C(=NN=CC=Cc1ccc([N+](=O)[O-])cc1)C(=O)N2 [IHNC5] | > 40 µM | 88.6 ± 1.98% | > 40 µM | 82 ± 1.05% |  |
| C#CCN1C(=O)/C(=N/NC(=O)c2ccc3c(c2)OCO3)c2ccccc21 [Compound 3] |  |  |  |  | IC50 (MAO-B [5]): 0.034 µM |
| COc1ccc(C=CC=NN=C2C(=O)Nc3ccc(F)cc32)cc1 [IHMC3] | > 40 µM | 85.5 ± 6.42% | > 40 µM | 81.3 ± 4.61% |  |

— publication PMC10458360, “Assembling a Cinnamyl Pharmacophore in the C3-Position of Substituted Isatins via Microwave-Assisted Synthesis: Development of a New Class of Monoamine Oxidase-B Inhibitors for the Treatment of Parkinson’s Disease” (Molecules, 2023)
